The conditions of this assay: for Removing phosphate %: 0.5 g in 100 ml, 37° C. As for the experimental part:
Lanthanum carbonate 0.5 g was added to 0.85% NaCl solution 100 ml (pH 6.8) and 0.85% NaCl solution 100 ml (pH7.8), respectively. Then, sufficient quantities of Na2HPO4 were added to the two solutions, stirred at 37° C. Filtered solutions were obtained at 10 min, 30 min, 40 min and 60 min, respectively. Phosphate content was determined and the percentage of removing phosphate was computed.

Structures are written as SMILES. Where two headings read alike, the source gives them in different places.

This is an account of results in patent US7662364B2, “Drug for hyperphospheremia and its preparative method” (priority 2006, dated 2010).

As to `O=C([O-])[O-].O=C([O-])[O-].O=C([O-])[O-].[La+3].[La+3]` [Lanthanum carbonate], the Removing phosphate % (0.85% NaCl pH 6.8, 10 min) came out at 6.7%; the Removing phosphate % (0.85% NaCl pH 6.8, 30 min) was 13.7%; the Removing phosphate % (0.85% NaCl pH 6.8, 40 min) came to 16.9%; the Removing phosphate % (0.85% NaCl pH 6.8, 60 min) is 20.8%; the Removing phosphate % (0.85% NaCl pH 7.8, 10 min) came out at 1.4%; the Removing phosphate % (0.85% NaCl pH 7.8, 30 min) is on record as below 2.0%. In addition, the Removing phosphate % is reported as below 2.0% (0.85% NaCl pH 7.8, 40 min) and below 2.0% (0.85% NaCl pH 7.8, 60 min). For the same molecule, the “phosphate removal, result in words” value is reported as “unable to remove phosphate” (solution whose PH was similar to that of human large intestine (pH 7.8)) and “removed less phosphate” (solution whose PH was similar to that of human small intestine (pH 6.8)).
